In article PMC11597207, “Synthesis and Anti-Inflammatory and Analgesic Potentials of Ethyl 2-(2,5-Dioxo-1-Phenylpyrrolidin-3-yl)-2-Methylpropanoate” (Pharmaceuticals, 2024):
“And” between values parts separate entries of the source, which are not always exact repeats. Identical values can stand only once.

Key:
[1] = target: T1, 5-LOX (Homo sapiens, UniProt P09917); assay: 5-LOX inhibitory assay; format: biochemical
T1 construct: purchased Cayman Chemical Batch No.: A3457
T1 sequence (P09917 1-674): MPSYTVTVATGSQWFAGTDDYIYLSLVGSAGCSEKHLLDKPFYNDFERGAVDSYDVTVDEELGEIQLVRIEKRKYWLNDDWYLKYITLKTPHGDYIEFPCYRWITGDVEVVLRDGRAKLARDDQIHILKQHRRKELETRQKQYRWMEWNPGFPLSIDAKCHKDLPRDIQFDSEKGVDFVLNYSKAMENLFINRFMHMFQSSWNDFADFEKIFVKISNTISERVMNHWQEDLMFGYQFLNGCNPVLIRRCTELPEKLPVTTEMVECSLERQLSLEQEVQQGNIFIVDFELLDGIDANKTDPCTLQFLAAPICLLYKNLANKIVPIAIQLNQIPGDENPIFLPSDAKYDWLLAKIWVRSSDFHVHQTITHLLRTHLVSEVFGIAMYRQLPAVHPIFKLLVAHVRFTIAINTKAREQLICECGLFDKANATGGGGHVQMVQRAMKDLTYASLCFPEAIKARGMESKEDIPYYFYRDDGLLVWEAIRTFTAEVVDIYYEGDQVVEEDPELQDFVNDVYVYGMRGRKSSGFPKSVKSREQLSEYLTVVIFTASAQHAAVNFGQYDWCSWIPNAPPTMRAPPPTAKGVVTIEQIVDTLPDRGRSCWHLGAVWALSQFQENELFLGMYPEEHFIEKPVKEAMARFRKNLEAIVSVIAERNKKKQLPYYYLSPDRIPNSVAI
Procedure: The activity of MAK01 against the 5-LOX enzyme was investigated using a human recombinant form of 5-LOX [47]. To begin the 5-LOX activity assay, a 10,000 U/mL solution of 5-LOX was prepared in a phosphate buffer with a pH of 6.3. A range of concentrations of the test compounds in the same buffer were prepared for assay. As a substrate for 5-LOX, linoleic acid (80 mM) was diluted with ethyl alcohol and used in the assay. The experiment involved mixing the same amount of both the enzyme solution and the test sample, such as mixing 0.25 mL 5-LOX with 0.25 mL of the compound, both dissolved in buffer. The mixing was followed by incubation at 25 °C for 5 to 10 min. Subsequently, 0.10 mL of the linoleic acid solution was added and allowed to incubate for another 5 min. The absorbance was measured using a UV–visible spectrophotometer at a wavelength of 234 nm, and the percent inhibition was calculated based on the absorbance readings. The same procedure was repeated for different concentrations of the test samples. Zileuton, as a reference drug, was used in comparisons. Using the following formula, the percent inhibition for each sample was calculated: % Inhibition=Abs. of Control−Abs. of Sample/Abs. of Control×100

[2] = system: mice; assay: Acute toxicity in mice; format: in vivo
Procedure: The synthesized compound was assessed for its acute toxicity using mice sourced from the National Institute of Health in Pakistan. The mice for the experiment were categorized into several groups. Some groups were designated to receive the test samples, and another was set as a control group. […]. These compounds were first dissolved in normal saline before being administered. […]. The mice were monitored for a period of 24 h to 4 weeks following the administration of the pivalate-based Michael product. The study closely observed the mice for any irregular behavior, such as ataxia, aggressive reactions, and potential allergic symptoms, among others. Furthermore, any harmful outcomes or lethality were also recorded. These observations and recorded adverse events were compared between the group treated with the test compound and the control group. These comparisons offer valuable insights into the toxicity levels of the newly synthesized compounds [47].

[3] = system: carrageenan-induced paw edema; assay: Carrageenan-induced paw edema model; format: in vivo; details: mice
Procedure: The anti-inflammatory activity of MAK01 was evaluated through a carrageenan-induced paw edema model. The mice, with weights ranging from 25 to 30 g, were separated into five distinct groups, these being Vehicle Group 1, Aspirin Group 2, and different concentrations of MAK01 in Groups 3–5. Each of these groups comprised five mice. The negative control group in the experiment received a specific solution comprising normal saline, DMSO, and Tween-80. The mixture contained 94% normal saline, 5% DMSO, and 1% Tween-80, delivered at a concentration of 10 mL per kg. In contrast, the positive control group in the assay received the comparator aspirin at a precise dose of 10 mg/kg. The test samples were administered at doses of 10 mg/kg, 20 mg/kg, and 30 mg/kg, given intra-peritoneally. After 30 min, a 2% carrageenan suspension (0.2 mL) was administered to each mouse in every group via a subcutaneous injection in the hind paw. In the experiment, a plethysmometer was used to precisely measure inflammation and edema. These measurements were taken at multiple time points both prior to and following the carrageenan administration. Specifically, the readings were recorded at 1, 2, 3, 4, and 5 h intervals to monitor the progress of the inflammatory response and paw swelling. These obtained results were then compared against the outcomes from the negative control group. The gathered data from the experiment, relating to the impact of the newly synthesized compounds on paw edema, were carefully processed to derive the percentage of edema inhibition. Using the below equation, the percent inhibition was calculated. % Inhibition=Ce−Te/Ce×100
In the formula, ‘Ce’ refers to the control group paw edema volume, while ‘Te’ denotes test groups’ paw edema volume.

## CCOC(=O)C(C)(C)C1CC(=O)N(c2ccccc2)C1=O (stereo not shown) [MAK01, ethyl 2-(2,5-dioxo-1-phenylpyrrolidin-3-yl)-2-methylpropanoate]
[1]
  IC50: 363 µM
[1]; 62.50 μg/mL
  5-LOX percent inhibition: 45%
[1]; 62.50 μg/mL, read-out: 5-LOX percent inhibition
  inhibition at 62.5 µg/mL: 44.8%
[1]; 125 μg/mL
  5-LOX percent inhibition: 52%
[1]; 125 μg/mL, read-out: 5-LOX percent inhibition
  inhibition at 125 µg/mL: 51.9%
[1]; 250 μg/mL
  5-LOX percent inhibition: 60%
[1]; 250 μg/mL, read-out: 5-LOX percent inhibition
  inhibition at 250 µg/mL: 60.2%
[1]; 500 μg/mL
  5-LOX percent inhibition: 70%
[1]; 500 μg/mL, read-out: 5-LOX percent inhibition
  inhibition at 500 µg/mL: 69.9%
[1]; 1000 μg/mL
  5-LOX percent inhibition: 79%
[1]; 1000 μg/mL, read-out: 5-LOX percent inhibition
  inhibition at 1000 µg/mL: 79.4%
[2]; both, mouse, in vivo, po
  Lethal dose: ~1000 mg per kg of body weight
[2]; mice, oral, doses higher than 1000 mg per kg
  Signs of toxicity: distress, agitation, convulsions, discomfort, and abnormal behavior
[3]; dose 10 mg/kg, 1 h
  Paw Edema Inhibition in Percent: 30.3 ± 0.77 ^ns %
[3]; dose 10 mg/kg, 2 h
  Paw Edema Inhibition in Percent: 33.34 ± 0.98 %
[3]; dose 10 mg/kg, 3 h
  Paw Edema Inhibition in Percent: 19.62 ± 0.64 %
[3]; dose 10 mg/kg, 4 h
  Paw Edema Inhibition in Percent: 31.44 ± 0.74 %
[3]; dose 10 mg/kg, 5 h
  Paw Edema Inhibition in Percent: 31.22 ± 0.84 %
[3]; dose 20 mg/kg, 1 h
  Paw Edema Inhibition in Percent: 34.7 ± 0.74 ^ns %
[3]; dose 20 mg/kg, 2 h
  Paw Edema Inhibition in Percent: 34.7 ± 0.74% and 34.54 ± 0.76 %
[3]; dose 20 mg/kg, 3 h
  Paw Edema Inhibition in Percent: 21.42 ± 0.64 %
[3]; dose 20 mg/kg, 4 h
  Paw Edema Inhibition in Percent: 29.52 ± 0.63 %
[3]; dose 20 mg/kg, 5 h
  Paw Edema Inhibition in Percent: 31.85 ± 0.32 %
[3]; dose 30 mg/kg, 1 h
  Paw Edema Inhibition in Percent: 38.74 ± 0.81 ^ns %
[3]; dose 30 mg/kg, 2 h
  Paw Edema Inhibition in Percent: 39.20 ± 0.86 %
[3]; dose 30 mg/kg, 3 h
  Paw Edema Inhibition in Percent: 34.4 ± 0.64 %
[3]; dose 30 mg/kg, 4 h
  Paw Edema Inhibition in Percent: 37.64 ± 0.86 %
[3]; dose 30 mg/kg, 5 h
  Paw Edema Inhibition in Percent: 40.58 ± 0.84% and 40.58%
